Laboratory results: patent US20250368645A1, “BETA CARBOLINE ANALOGUES AS SELECTIVE AND BIASED KAPPA OPIOID RECEPTORS AGONISTS FOR TREATING VARIOUS ASSOCIATED PATHOPHYSIOLOGICAL CONDITIONS” (COUNCIL OF SCIENTIFIC AND INDUSTRIAL RESEARCH, priority 2022, published 2025)
Where two headings read alike, the source gives them in different places.

Assays:
human KOR [1] = molecular target: T1, human KOR (Homo sapiens, UniProt P41145); assay: GloSensor assay, Gi-mediated cAMP inhibition in HEK-293T cells transfected with human KOR; type: cell-based; conditions: for G-Protein Bias factor (IC50 -Glosensor/- EC50 - Tango): KOR, GloSensor versus Tango;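 for agonist at KOR (pIC50): value taken from a statement in the text not a table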
Target sequence in this assay (P41145 whole entry): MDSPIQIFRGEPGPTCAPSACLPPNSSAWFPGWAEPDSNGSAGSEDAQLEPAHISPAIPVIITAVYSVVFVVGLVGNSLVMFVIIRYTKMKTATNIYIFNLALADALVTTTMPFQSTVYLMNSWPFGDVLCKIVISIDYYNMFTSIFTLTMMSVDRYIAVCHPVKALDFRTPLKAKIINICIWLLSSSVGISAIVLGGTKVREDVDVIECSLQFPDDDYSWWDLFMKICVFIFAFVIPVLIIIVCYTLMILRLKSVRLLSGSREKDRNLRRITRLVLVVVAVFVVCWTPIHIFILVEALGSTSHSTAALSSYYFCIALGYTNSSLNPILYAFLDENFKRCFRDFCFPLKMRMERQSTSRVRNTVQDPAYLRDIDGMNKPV

human KOR [2] = molecular target: T1, human KOR; assay: β-arrestin2 Tango assay in HTLA cells transiently transfected with human KOR; type: cell-based; conditions: Table 2, KOR; for EC50: read-out: B-arrestin Tango Assay (pEC50) (converted)
Target sequence in this assay (P41145 whole entry, added parts left off): as the sequence (P41145 whole entry) above

DOR = DOR (Homo sapiens, UniProt P41143); assay: GloSensor assay at DOR; type: cell-based; conditions: given as Log IC50 (negative values)
DOR, sequence (P41143 whole entry): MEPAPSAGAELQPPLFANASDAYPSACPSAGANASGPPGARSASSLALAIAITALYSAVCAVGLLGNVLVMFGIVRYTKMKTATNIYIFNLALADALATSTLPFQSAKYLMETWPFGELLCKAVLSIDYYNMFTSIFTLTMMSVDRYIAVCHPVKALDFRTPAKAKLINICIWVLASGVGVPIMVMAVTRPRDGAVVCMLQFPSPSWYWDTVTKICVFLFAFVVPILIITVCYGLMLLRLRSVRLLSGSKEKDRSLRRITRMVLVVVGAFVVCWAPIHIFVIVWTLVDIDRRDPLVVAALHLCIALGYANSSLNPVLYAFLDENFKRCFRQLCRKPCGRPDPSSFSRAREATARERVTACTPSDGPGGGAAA

MOR = MOR (Homo sapiens, UniProt P35372); assay: GloSensor assay at MOR; type: cell-based; conditions: given as Log IC50 (negative values)
MOR, sequence (P35372 whole entry): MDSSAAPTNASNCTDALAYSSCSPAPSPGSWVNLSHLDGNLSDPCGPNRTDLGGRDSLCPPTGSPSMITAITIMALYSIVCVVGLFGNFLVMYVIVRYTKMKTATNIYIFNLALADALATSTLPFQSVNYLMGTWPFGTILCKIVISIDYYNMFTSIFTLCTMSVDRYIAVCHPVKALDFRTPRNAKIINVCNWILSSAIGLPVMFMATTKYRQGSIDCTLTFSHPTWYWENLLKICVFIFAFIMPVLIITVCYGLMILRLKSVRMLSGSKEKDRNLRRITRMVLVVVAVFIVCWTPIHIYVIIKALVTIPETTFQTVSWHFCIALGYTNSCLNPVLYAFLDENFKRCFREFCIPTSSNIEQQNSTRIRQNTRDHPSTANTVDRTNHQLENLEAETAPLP

[3] = tested on: paclitaxel (PTX)-treated mice; assay: Paclitaxel-induced peripheral neuropathy model; type: in vivo; conditions: 8abd 5 and 10 mg/kg p.o.; duloxetine 10 mg/kg; 16 days
[4] = Table 2, KOR, read-out: GloSensor Assay (pIC50) (converted)
[5] = given as Log IC50 (negative values), agonist activity, inhibition of FSK-stimulated cAMP, read-out: GloSensor Assay (Log IC50) KOR (converted)
[6] = read-out: agonist at KOR (pIC50) (converted)

Compound	G-Protein Bias factor (IC50 -Glosensor/- EC50 - Tango) (human KOR [1])	GloSensor Assay (pIC50) (human KOR [1]; Table 2, KOR)	GloSensor Assay (Log IC50) KOR (human KOR [1]; given as Log IC50 (negative values), agonist activity, inhibition of FSK-stimulated cAMP)	B-arrestin Tango Assay (pEC50) (human KOR [2])	GloSensor Assay (Log IC50) DOR (DOR)	GloSensor Assay (Log IC50) MOR (MOR)	IC50 (human KOR [1]; [4])	IC50 (human KOR [1]; [5])	IC50 (human KOR [1]; [6])	EC50 (human KOR [2])	IC50 (DOR)	IC50 (MOR)	mechanical pain (mechanical hyperalgesia, Von frey hair test), chronic administration [3]	thermal hyperalgesia (Hargreaves test), chronic administration [3]
2-(4-Fluorophenyl)-1-(4-methoxyphenyl)-2,11-dihydroimidazo[1′,5′:1,2]pyrido[3,4-b]indol-4-ium [8aod]	1.68	7.9	−7.9	6.22	>−5	>−5								
Clc1ccc(-n2c[n+]3ccc4c5ccccc5[nH]c4c3c2-c2ccc(Br)cc2)cc1.[Cl-] [8abc, 1-(4-Bromophenyl)-2-(4-chlorophenyl)-2,11-dihydromidazo[1′,5′:1,2]pyrido[3,4-b]indol-4-ium chloride]	2.35						1.12 nM	0.631 nM	< 31.6 nM	251 nM	> 10000 nM	> 10000 nM		
Brc1ccc(-c2c3c4[nH]c5ccccc5c4cc[n+]3cn2-c2cccc(Br)c2)cc1.[Cl-] [8abe, 2-(3-Bromophenyl)-1-(4-bromophenyl)-2,11-dihydroimidazo[1′,5′:1,2]pyrido[3,4-b]indol-4-ium chloride]	1.72						12.9 nM	1.26 nM	< 31.6 nM	676 nM	> 10000 nM	> 10000 nM		
Brc1ccc(-n2c[n+]3ccc4c5ccccc5[nH]c4c3c2-c2ccccc2Br)cc1.[Cl-] [8acb, 1-(2-Bromophenyl)-2-(4-bromophenyl)-2,11-dihydroimidazo[1′,5′:1,2]pyrido[3,4-b]indol-4-ium chloride]	3.6						0.115 nM	2.51 nM	< 31.6 nM	457 nM	> 10000 nM	> 10000 nM		
Clc1ccc(-n2c[n+]3ccc4c5ccccc5[nH]c4c3c2-c2ccccc2Br)cc1.[Cl-] [8acc, 1-(2-Bromophenyl)-2-(4-chlorophenyl)-2,11-dihydrolmidazo[1′,5′:1,2]pyrido[3,4-b]indol-4-ium]	2.89						0.589 nM	1.58 nM	< 31.6 nM	457 nM	3980 nM	2000 nM		
Fc1ccc(-n2c[n+]3ccc4c5ccccc5[nH]c4c3c2-c2ccccc2Br)cc1.[Cl-] [8acd, 1-(2-Bromophenyl)-2-(4-fluorophenyl)-2,11-dihydroimidazo[1′,5′:1,2]pyrido[3,4-b]indol-4-ium chloride]	3						1.58 nM	1.58 nM	< 31.6 nM	1580 nM	> 10000 nM	> 10000 nM		
Clc1ccc(-c2c3c4[nH]c5ccccc5c4cc[n+]3cn2-c2ccc(Br)cc2)cc1.[Cl-] [8adb, 2-(4-Bromophenyl)-1-(4-chlorophenyl)-2,11-dihydroimidazo[1′,5′:1,2]pyrido[3,4-b]indol-4-ium chloride]	1.44						20 nM	20 nM	< 31.6 nM	550 nM	> 10000 nM	> 10000 nM		
Clc1ccc(-c2c3c4[nH]c5ccccc5c4cc[n+]3cn2-c2ccc(Cl)cc2)cc1.[Cl-] [8adc, 1,2-Bis(4-chlorophenyl)-2,11-dihydrolmidazo[1′,5′:1,2]pyrido[3,4-b]indol-4-ium chloride]	3.28						0.501 nM	1.58 nM	< 31.6 nM	955 nM	> 10000 nM	> 10000 nM		
Fc1ccc(-n2c[n+]3ccc4c5ccccc5[nH]c4c3c2-c2ccc(Cl)cc2)cc1.[Cl-] [8add, 1-(4-Chlorophenyl)-2-(4-fluorophenyl)-2,11-dihydroimidazo[1′,5′:1,2]pyrido[3,4-b]indol-4-ium chloride]	2.67						2.94 nM	3.98 nM	< 31.6 nM	1380 nM	> 10000 nM	> 10000 nM		
Clc1ccc(-n2c[n+]3ccc4c5ccccc5[nH]c4c3c2-c2ccccc2Cl)cc1.[Cl-] [8aec, 1-(2-Chlorophenyl)-2-(4-chlorophenyl)-2,11-dihydroimidazo[1′,5′:1,2]pyrido[3,4-b]indol-4-ium chloride]	1.23						7.94 nM	7.94 nM	< 31.6 nM	135 nM	> 10000 nM	501 nM		
Fc1ccc(-n2c[n+]3ccc4c5ccccc5[nH]c4c3c2-c2ccccc2Cl)cc1.[Cl-] [8aed, 1-(2-Chlorophenyl)-2-(4-fluorophenyl)-2,11-dihydroimidazo[1′,5′:1,2]pyrido[3,4-b]indol-4-ium chloride]	1.06						10 nM	10 nM	< 31.6 nM	115 nM	> 10000 nM	> 10000 nM		
Cc1ccc(-c2c3c4[nH]c5ccccc5c4cc[n+]3cn2-c2ccc(F)cc2)cc1.[Cl-] [8akd, 2-(4-Fluorophenyl)-1-(p-tolyl)-2,11-dihydroimidazo[1′,5′:1,2]pyrido[3,4-b]indol-4-ium chloride]	3.15						0.641 nM	1.58 nM	< 31.6 nM	916 nM	> 10000 nM	> 10000 nM		
COc1ccc(Cn2c[n+]3ccc4c5ccccc5[nH]c4c3c2-c2ccc(Cl)cc2)cc1OC [9abg, 1-(4-Chlorophenyl)-2-(3,4-dimethoxybenzyl)-2,11-dihydroimidazo[1′,5′:1,2]pyrido[3,4-b]indol-4-ium chloride]								955 nM			> 10000 nM	> 10000 nM		
FC(F)(F)Oc1ccc(Cn2c[n+]3ccc4c5ccccc5[nH]c4c3c2-c2ccc(Cl)cc2)cc1 [9abh, 1-(4-Chlorophenyl)-2-(4-(trifluoromethoxy)benzyl)-2,11-dihydroimidazo[1′,5′:1,2]pyrido[3,4-b]indol-4-ium chloride]								> 10000 nM			> 10000 nM	> 10000 nM		
Clc1ccc(-c2c3c4[nH]c5ccccc5c4cc[n+]3cn2Cc2ccsc2)cc1 [9acj, 1-(4-Chlorophenyl)-2-(thiophen-3-ylmethyl)-2,11-dihydroimidazo[1′,5′:1,2]pyrido[3,4-b]indol-4-ium chloride]								> 10000 nM			> 10000 nM	> 10000 nM		
Fc1ccc(-n2c[n+]3c4ccccc4c4c5ccccc5[nH]c4c3c2-c2ccccc2)cc1 [12ad, 2-(4-Fluorophenyl)-1-phenyl-2,13-dihydroimidazo[1,5-a]indolo[2,3-c]quinolin-4-ium chloride]								> 10000 nM			> 10000 nM	> 10000 nM		
Cc1ccc(-c2c3c4[nH]c5ccccc5c4c4ccccc4[n+]3cn2-c2ccc(F)cc2)cc1 [12bc, 2-(4-Fluorophenyl)-1-(p-tolyl)-2,13-dihydrolmidazo[1,5-a]indolo[2,3-c]quinolin-4-ium chloride]								> 10000 nM			> 10000 nM	> 10000 nM		
Clc1ccc(-n2c[n+]3c4ccccc4c4c5ccccc5[nH]c4c3c2-c2ccc(Br)cc2)cc1 [12bd, 1-(4-Bromophenyl)-2-(4-chlorophenyl)-2,13-dihydroimidazo[1,5-a]indolo[2,3-c]quinolin-4-ium chloride]								> 10000 nM			> 10000 nM	> 10000 nM		
Fc1ccc(-n2c[n+]3c4ccccc4c4c5ccccc5[nH]c4c3c2-c2ccc(Br)cc2)cc1 [12cc, 1-4-Bromphenyl)-2-(4-fluorophenyl)-2,13-dihydroimidazo[1,5-a]indolo[2,3-c]quinolin-4-ium chloride]								> 10000 nM			> 10000 nM	> 10000 nM		
Clc1ccc(-c2c3c4[nH]c5ccccc5c4c4ccccc4[n+]3cn2-c2ccc(Cl)cc2)cc1 [12dd, 1,2-Bis(4-chlorophenyl)-2,13-dihydroimidazo[1,5-a]indolo[2,3-c]quinolin-4-ium chloride]								> 10000 nM			> 10000 nM	> 10000 nM		
CNCC[C@H](Oc1cccc2ccccc12)c1cccs1 [duloxetine, reference compound]													significantly improved	significantly improved
